These are literature values, as cited in patent US8207231B2, “Hepatitis A virucide” (Ecolab USA Inc., priority 1999, dated 2012).

The data set has as its system hepatitis A. Particulars: 1 percent and 2 percent concentration.

As to `Cc1ccc(S(=O)(=O)[N-]Cl)cc1.[Na+]` [chloramine T], the “meets the requirements for activity against hepatitis A” value is reported as “meets the requirements for activity against hepatitis A”.
